{
  "source": "paper PMC4188015",
  "about": "(Acta Crystallographica Section D: Biological Crystallography, 2014)",
  "key": {"[1]": {"system": "both rat IR-A and IR-B isoforms", "assay": "Receptor binding, rat adipocyte plasma membranes", "experimental": "Receptor-binding studies with the insulin receptor in plasma membranes containing both rat IR-A and IR-B isoforms prepared from epididymal adipose tissue of adult male Wistar rats were performed and analyzed according to Žáková et al. (2008[▶]). Binding data were analyzed using GraphPad Prism 5. Half-maximal inhibition values of binding of [^125I]-insulin to the receptor (IC50) were obtained using a nonlinear regression method and a one-site fitting program."}, "IR-A": {"target": "IR-A", "settings": "ref Morcavallo et al., 2012; read-out: K d for IR-A; cited from earlier work", "text": "(§1) Extensive mutagenesis and cross-linking studies of both insulin and IR led to the discovery and mapping of two sites on the IR that are responsible for engaging with the hormone. […] The hormone–receptor interaction events are comp ..."}, "[2]": {"system": "both rat IR-A and IR-B isoforms", "settings": "rat adipocytes, ref Jiracek et al. (2010), cited from earlier work", "text": "(§2) In the cases of [PheB26]-insulin and [GlyB26]-insulin, we aimed to investigate the structural consequences of the loss of the TyrB26 side-chain hydroxyl group or the whole TyrB26 side chain, respectively. The affinities of the analogues for the IR-A isoform (IM-9 lymphocytes) and of selected ..."}, "[3]": {"assay": "Isothermal microcalorimetry (ITC) of dimerization (dimer-monomer dissociation)", "assay_type": "physicochemical", "settings": "mean ± spread, n = 3, read-out: K diss (dimer↔monomer)", "description": "Investigations of the dimerization abilities of selected insulin analogues were performed as described in detail previously (Antolikova et al., 2011[▶])."}, "IR": {"system": "IR", "settings": "ref Žáková et al., 2013; cited from earlier work", "text": "as §2, with “The full-length insulin B26-site mutants AsnB26, AspB26, PheB26, GlnB26 and GlyB26 have been prepared and characterized. […] In” for “In”"}, "IR-B": {"system": "IR-B", "settings": "single mutation; ref Glendorf et al. (2011); cited from earlier work", "text": "The IR-B:IR-A specificity ratio of insulin analogues is of considerable interest owing to IR-B being the dominant (∼90–95%) receptor isoform in the liver (Moller et al., 1989[▶]). This, together with the anatomic proximity of the pancreas and the liver (short hepatic portal vein connectivity), makes the liver the major glucose homeostatic organ."}, "[4]": {"settings": "ITC; n = 8; ref Antolikova et al. (2011); listed as wild-type human insulin; read-out: K diss (dimer↔monomer); cited from earlier work"}, "IR site 2": {"target": "IR site 2", "settings": "ref Kiselyov et al., 2009; read-out: K d, IR low-affinity site 2; cited from earlier work", "text": "as §1"}},
  "note": "Like-named read-outs stand apart in the source and are kept apart here.",
  "data": [
    {"substance": "[GlyB26]-insulin", "values": [
      {"measurement": "Potency (relative receptor-binding affinity), rat IR-A and IR-B", "setting": "[1]; (IC50 of human insulin/IC50 of analogue) × 100, rat adipocytes", "result": "~70", "unit": "%"},
      {"measurement": "IC50", "setting": "[1]; half-maximal inhibition of binding of human 125I-TyrA14 insulin, rat adipose plasma membranes, mean ± SE (n), SEM, read-out: IC50 ± SE for both rat IR-A and IR-B in rat adipocytes", "result": "1.16 ± 0.12", "unit": "nM"}
    ]},
    {"substance": "insulin-like growth factor II [IGF-II]", "values": [
      {"measurement": "Kd", "setting": "IR-A", "result": "~4", "unit": "nM"}
    ]},
    {"substance": "[PheB26]-insulin", "values": [
      {"measurement": "Potency (relative receptor-binding affinity), rat IR-A and IR-B", "setting": "[2]", "result": "46 ^¶ %"},
      {"measurement": "Potency (relative receptor-binding affinity), rat IR-A and IR-B", "setting": "[2]; listed as PheB26", "result": "less than 50%"},
      {"measurement": "Kd", "setting": "[3]", "result": "27200 ± 7400", "unit": "nM"}
    ]},
    {"substance": "[GluB26,LysB28,ProB29]-insulin", "values": [
      {"measurement": "binding affinity relative to human insulin", "setting": "IR", "result": 193, "unit": "%"}
    ]},
    {"substance": "[AsnB25]-insulin", "values": [
      {"measurement": "IR-B specificity", "setting": "IR-B", "result": "doubling of the IR-B specificity"}
    ]},
    {"substance": "Human insulin", "values": [
      {"measurement": "Kd", "setting": "[4]", "result": "~9000", "unit": "nM"},
      {"measurement": "Kd", "setting": "IR site 2", "result": "~400", "unit": "nM"}
    ]}
  ]
}
